Patent US7611713B2 (priority 1999, dated 2009)
No end group written: not given here.

Assays:
[1] = molecular target: B*3501 (Homo sapiens, UniProt P01889, A329T/A93T/A95T/C349S/D201E/D98Y/E176V/E187L/E204Q/E69T/I218V/K202T/L119I/Q94N/R155S/R180L/S121R/S35A/S48A/T118I/V127L/V306I/V36M/Y140S/Y91F); experiment: HLA class I peptide binding assay, B*3501
[2] = molecular target: B*5301 (Homo sapiens, UniProt P01889, A329T/A93T/A95T/C349S/D201E/D98Y/E176V/E187L/E204Q/E69T/G107R/I218V/K202T/L105A/L119I/N104I/Q94N/R106L/R155S/R180L/S101N/S121R/S35A/S48A/T118I/V127L/V306I/V36M/Y140S/Y91F); experiment: HLA class I peptide binding assay, B*5301
[3] = molecular target: B*5401 (Homo sapiens, UniProt P01889, A329T/C349S/D138N/D201E/E176V/E187T/E204Q/E69G/I76V/K202T/L119W/R155S/R180L/S121T/S35A/S48A/V127L/V306I/V36M/Y140L); experiment: biochemical; assay type: binding
[4] = molecular target: B*0702 (Homo sapiens, UniProt P01889); experiment: biochemical; assay type: binding
[5] = tested on: T helper lymphocytes; conditions: individuals regardless of HLA type; cited from earlier work

Row | Substance | IC50 [1] [nM] | IC50 [2] [nM] | IC50 [3] [nM] | IC50 [4] [nM] | stimulation of T helper lymphocyte response [5]
1 | FPFCLAFSY [Peptide 2511] | 6.5 | 4.8 | 5.1 | – | –
2 | FPHCLAFSL [Peptide 2510] | – | 15 | – | 74 | –
3 | FPHCLAFSA [Peptide 2513] | 6.5 | 137 | 0.6 | 3670 | –
4 | FPHCLAFSI [Peptide 2512] | – | 3.8 | 1 | 675 | –
5 | FPIPSSWAF [Peptide 2506] | – | – | – | 24 | –
6 | aKXVWANTLKAAa | – | – | – | – | stimulate the response of T helper lymphocytes from most individuals
7 | FPHCLAFAL [Peptide 2509] | – | 5 | 24 | 25 | –
